Data taken from patent US12455218B2, “Methods and compositions for reversing platelet clumping” (Truvian Sciences, Inc., priority 2019, dated 2025).
Entries after “also recorded” stand apart in the source; their conditions may differ. One block for each molecule: values may come before it.

Legend:
Assay type in all cases: cell-based
[1] = tested on: platelets in venipuncture and fingerstick blood; experiment: Platelet clumping after blood collection into anticoagulant tubes; conditions: venipuncture and fingerstick blood collected in anticoagulant tubes
Excerpt: Blood used in the following examples came from either venipuncture or fingerstick samples. Standard phlebotomy practices were followed to collect donor venipuncture blood in either BD Vacutainer′ EDTA blood collection tubes or BD Vacutainer′ PST lithium heparin plasma separation blood collection tubes. Standard phlebotomy practices were followed to collect donor fingerstick blood in either LiHep SAFE-T-FILL™ tubes or EDTA SAFE-T-FIL™tubes. All blood samples were stored at room temperature until use. Samples were analyzed within 12 hours of blood collection.
Platelet clumping appeared to occur spontaneously following blood collection. For all studies, an EDTA control sample was used in which blood from either venipuncture or fingerstick were collected into EDTA tubes. EDTA venipuncture control samples were collected into EDTA blood collection tubes from the same donor using the same port as the lithium heparin samples.

[2] = tested on: white blood cells; experiment: White blood cell morphology, AO stain, fluorescence microscopy; conditions: FIG. 2, fingerstick LiHep blood, 60 M EDTA, 3×EDTA sample 60 mM
Procedure: Next, it was examined whether EDTA exposure impacts blood cell morphology. Particularly, fresh fingerstick blood samples were collected into EDTA and LiHep blood collection tubes. Concentrated EDTA was dried for at least one hour at room temperature in microcentrifuge tubes using a vacuum drying oven. A 200 uL fraction of the LiHep sample (“1×”) was added to the previously prepared vacuum-dried EDTA resulting in a final concentration of 20 mM EDTA in blood. Another 200 uL fraction of the LiHep sample (“3×”) was added to the previously prepared vacuum-dried EDTA resulting in a final concentration of 60 mM EDTA in blood. […] Cells were imaged using the fluorescence setting on an Echo Revolve microscope. […] To capture the green fluorescence of AO, which labeled the nuclei of white blood cells, a blue LED light source with excitation filter at 470/40 nm was paired with emission filter at 525/50 nm, with a dichroic mirror at 495 nm. To capture the red fluorescence of AO, which labeled the cytoplasmic compartments of white blood cells, the same blue LED light source was paired with emission filter at 635/60 nm with a dichroic mirror at 600 nm. […]
Particularly, fresh venipuncture blood samples were collected into EDTA and LiHep blood collection tubes as described above. […] Cells were imaged using the fluorescence setting on an Echo Revolve™ microscope. […]

[3] = tested on: platelet clumps in LiHep blood samples; experiment: Platelet count per field of view in blood smears of LiHep blood, Azure B stain; conditions: for recovery of platelet counts: FIG. 3, fingerstick LiHep blood, vortexed, Azure B
Procedure: A series of anti-coagulants are tested for their respective effect in reversing platelet clumping formed in blood samples. Fresh fingerstick blood samples were collected into EDTA and LiHep blood collection tubes as described above. Concentrated EDTA was dried for at least one hour at room temperature in microcentrifuge tubes using a vacuum drying oven. Immediately following collection, a 200 uL fraction of the LiHep sample (“LiHep+EDTA”) was passed through two separate EDTA SAFE-T-FIL™ capillary tubes for a double exposure to the EDTA anticoagulant resulting in a final concentration of about 8.8 mM EDTA in blood Another 200 uL fraction (“LiHep+TruEDTA”) was added to the previously prepared vacuum-dried EDTA resulting in a final concentration of 20 mM EDTA in blood. At 30 minutes post collection, another 200 uL fraction of the LiHep sample (“LiHep+EDTA 30 min”) was passed through two separate EDTA SAFE-T-FILL™ capillary tubes for a double exposure to the EDTA anticoagulant. All samples were pulse vortexed with three, five-second bursts at the maximum vortex setting immediately following addition to EDTA. At 30 minutes post collection, all samples were then stained using an Azure B solution from the Differential Quik Stain™ Kit (Modified Giemsa) from Polysciences, Inc. Azure B was added to blood sample at a 1:1 ratio and pipette mixed. A standard blood smear was performed on all samples. Cells were imaged using the bright field setting on an Echo Revolve™ microscope at 20× magnification. Between six to seven different fields of view were captured. Images were analyzed using Image J and the number of platelets present in each field of view was manually counted. Error bars indicate standard deviation of the data set.
Particularly, fresh fingerstick blood samples were collected into EDTA and LiHep blood collection tubes as described above. Concentrated EDTA was dried for at least one hour at room temperature in microcentrifuge tubes using a vacuum drying oven. […] Images were analyzed using Image J and the number of platelets present in each field of view was manually counted. […]

[4] = tested on: platelet clumps in LiHep blood samples; experiment: Platelet count per field of view in blood smears of LiHep blood, acridine orange (AO) stain; conditions: for declumping activity / increase in platelet count due to reversal of platelet clumping: Example 8, FIG. 7 and 8, LiHep blood
Procedure: Particularly, fresh venipuncture blood samples were collected into EDTA and LiHep blood collection tubes as described above. Concentrated EDTA was dried for at least one hour at room temperature in microcentrifuge tubes using a vacuum drying oven. […] This sample was pulse vortexed with three, ten second bursts at the maximum vortex setting. […] This sample was sonicated in a water bath sonicator for 1 minute. […] This sample was pipette mixed using a Tecan Carvo Omni™ automated pipettor. To mix, 150 uL of sample was aspirated and dispensed at 1 mL/s 0.5 mm from the bottom of the tube. This mixing cycle was repeated 30 times. All samples were then stained using an acridine orange (AO). AO was added to blood sample at a final concentration of 10 ug/mL, pipette mixed and incubated for 5 minutes at room temperature. A standard blood smear was performed on all samples. A coverslip was placed on top of the sample immediately following the blood smear to prevent sample drying out. Cells were imaged using the fluorescence setting on an Echo Revolve™ microscope. AO is a pH-sensitive cationic dye. When bound to double-stranded DNA (for example, in the nuclear compartment), the dye fluoresces green with an excitation maximum at 502 nm and emission maximum at 525 nm. When bound to single stranded DNA and RNA (for example, in the cytoplasm) or when the dye is in an acidic environment (for example, in lysosomes), the dye fluoresces red with an excitation maximum at 460 nm and emission maximum at 650 nm. […] Between five to eight different fields of view were captured. Images were analyzed using Image J and the number of platelets present in each field of view was manually counted. Error bars indicate standard deviation of the data set.
Particularly, fresh venipuncture blood samples were collected into EDTA and LiHep blood collection tubes as described above. Concentrated EDTA was dried for at least one hour at room temperature in microcentrifuge tubes using a vacuum drying oven. […] Both samples were pulse vortexed with three, ten-second bursts at the maximum vortex setting. Samples were then stained using acridine orange (AO). AO was added to blood sample at a final concentration of 10 ug/mL, pipette mixed and incubated for 5 minutes at room temperature. A standard blood smear was performed on all samples. A coverslip was placed on top of the sample immediately following the blood smear to prevent sample drying out. Cells were imaged using the fluorescence setting on an Echo Revolve™ microscope. AO is a pH-sensitive cationic dye. When bound to double-stranded DNA (for example, in the nuclear compartment), the dye fluoresces green with an excitation maximum at 502 nm and emission maximum at 525 nm. When bound to single stranded DNA and RNA (for example, in the cytoplasm) or when the dye is in an acidic environment (for example, in lysosomes), the dye fluoresces red with an excitation maximum at 460 nm and emission maximum at 650 nm. […] Between five to seven different fields of view were captured. Images were analyzed using Image J and the number of platelets present in each field of view was manually counted. Error bars indicate standard deviation of the data set.
To investigate the ability of citric acid to reverse platelet clumping, venipuncture blood samples were collected into EDTA and LiHep blood collection tubes as described above. […] A second 15 μL fraction of LiHep blood was treated with citric acid at a final concentration of 5 mM. To encourage platelet declump, samples were then vortexed. Samples were stained using acridine orange and imaged using an Echo Revolve™ Microscope at 20× magnification. Images were analyzed using Image J and the number of platelets present in each field of view (FOV) across 10 FOVs was manually counted.
Venipuncture blood samples were collected into EDTA and LiHep blood collection tubes as described above. A 15 μL aliquot of LiHep blood was treated with 5 mM NTA an vortexed vigorously.

morphology of white blood cells [2]: negatively impact
Molecule: O=C(O)CN(CCN(CC(=O)O)CC(=O)O)CC(=O)O [EDTA, ethylenediaminetetraacetic acid]
platelet clumping following blood collection [1]: no detectible platelet clumping
recovery of platelet counts ([3]; 17.6 mM EDTA (LiHep+EDTA)): greater than 40%
recovery of platelet counts ([3]; 20 mM EDTA (LiHep+TruEDTA)): greater than 40%
reversed platelet clumping as compared to control groups ([3]; FIG. 3 legend, blood collected in LiHep tubes): about 40%

Molecule: O=C(O)CN(CC(=O)O)CC(=O)O [NTA, N,N-bis(carboxymethyl)glycine]
declumping activity / increase in platelet count due to reversal of platelet clumping [4]: showed declumping activity; also recorded: increase in platelet count
recovery of platelets ([4]; FIG. 8, venipuncture LiHep blood, 5 mM NTA, vortexed vigorously, 10 FOVs): 71%

Molecule: O=C(O)CC(O)(CC(=O)O)C(=O)O [citric acid, 2-hydroxypropane-1,2,3-tricarboxylic acid]
declumping activity / increase in platelet count due to reversal of platelet clumping [4]: increase in platelet count
declumping activity / increase in platelet count due to reversal of platelet clumping ([4]; listed as Citric acid): showed declumping activity
recovery of platelet counts ([4]; FIG. 7, venipuncture LiHep blood, citric acid 5 mM, vortexed, 10 FOVs): 66%

Molecule: Lithium heparin
platelet clumping following blood collection [1]: Significant amount of platelet clumping
